Test results: ChEMBL document CHEMBL1138336, “Design and synthesis of novel and potent amide linked PPARgamma/delta dual agonists” (Bioorg Med Chem Lett, 2007)

Assays:
[1] = target: T1, Peroxisome proliferator-activated receptor delta (Homo sapiens, UniProt Q03181)
T1 sequence (Q03181 whole entry): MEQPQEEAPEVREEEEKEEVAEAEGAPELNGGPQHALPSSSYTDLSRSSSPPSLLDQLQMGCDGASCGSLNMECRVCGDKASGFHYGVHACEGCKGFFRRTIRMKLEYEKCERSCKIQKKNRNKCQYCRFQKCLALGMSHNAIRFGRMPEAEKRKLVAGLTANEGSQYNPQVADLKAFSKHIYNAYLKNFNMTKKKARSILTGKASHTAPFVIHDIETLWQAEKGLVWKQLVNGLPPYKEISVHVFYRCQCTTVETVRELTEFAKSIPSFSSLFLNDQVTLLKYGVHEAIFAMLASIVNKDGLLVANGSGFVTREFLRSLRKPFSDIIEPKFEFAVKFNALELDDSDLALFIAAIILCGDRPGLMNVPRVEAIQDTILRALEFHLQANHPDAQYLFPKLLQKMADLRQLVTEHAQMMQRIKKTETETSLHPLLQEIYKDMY

[2] = target: T1, Peroxisome proliferator-activated receptor delta; remark: listed apart in the source
[3] = target: T2, Peroxisome proliferator-activated receptor alpha (Homo sapiens, UniProt Q07869)
T2 sequence (Q07869 whole entry): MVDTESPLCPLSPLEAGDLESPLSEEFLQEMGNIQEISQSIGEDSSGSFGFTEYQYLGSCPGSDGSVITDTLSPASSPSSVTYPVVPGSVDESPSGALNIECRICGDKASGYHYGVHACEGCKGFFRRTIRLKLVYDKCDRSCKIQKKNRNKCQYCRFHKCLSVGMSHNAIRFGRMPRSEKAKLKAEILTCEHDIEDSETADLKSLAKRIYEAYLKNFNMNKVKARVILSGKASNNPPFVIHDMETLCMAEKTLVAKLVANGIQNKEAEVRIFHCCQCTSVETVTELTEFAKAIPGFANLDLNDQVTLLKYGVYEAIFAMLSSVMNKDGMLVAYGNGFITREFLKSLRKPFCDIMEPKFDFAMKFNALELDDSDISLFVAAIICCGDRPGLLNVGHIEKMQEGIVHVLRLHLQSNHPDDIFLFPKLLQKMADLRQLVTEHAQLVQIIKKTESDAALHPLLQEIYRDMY

[4] = target: T2, Peroxisome proliferator-activated receptor alpha; remark: listed apart in the source
[5] = species: Rattus norvegicus; experiment: animal or person; format: functional; conditions: ZDF, po, 168 h

Structure (SMILES) | EC50 [1] [µM] | IC50 [2] [µM] | IC50 [3] [µM] | EC50 [4] [µM] | ED50 [5] [mg/kg]
Cc1cc(Oc2cccc(CNC(=O)c3ccc(C(F)(F)F)cc3C)c2)ccc1CCC(=O)O | 0.033 | 0.005 | > 10 | 2.89 | 
Cc1cc(Oc2cccc(CNC(=O)c3cc4cc(Cl)ccc4n3C)c2)ccc1CCC(=O)O | 0.087 | 0.003 | > 10 | 2.74 | 
CCc1cc(Oc2cc(F)cc([C@@H](C)NC(=O)c3sc4ccc(Cl)cc4c3C)c2)ccc1CCC(=O)O |  |  | 9.34 |  | 

The next lines start with results.

EC50 [1] [µM] | IC50 [2] [µM] | IC50 [3] [µM] | EC50 [4] [µM] | Structure (SMILES) | ED50 [5] [mg/kg]
0.004 | 0.003 | > 10 | 2.65 | Cc1cc(Oc2cccc(CNC(=O)c3c(C)c4cc(Cl)ccc4n3C)c2)ccc1CCC(=O)O | 
 |  | 10.3 | 2.82 | CCc1cc(Oc2cc(F)cc([C@@H](C)NC(=O)c3c(C)c4cc(Cl)ccc4n3C)c2)ccc1CCC(=O)O | 0.82
